Values joined by “and” are separate entries in the source; they are usually repeats but may differ in a detail not shown here. Equal values may be shown once.
What was measured:
rat stomach = assay: Gastric ulcerogenic activity; type: in vivo; settings: oral 10 mg/kg
[1] = system: carrageenan induced rat paw edema; assay: In vivo anti-inflammatory assay, carrageenan-induced paw edema; settings: 2 mg/kg oral; for % of edema inhibition 1 h: 1 h after carrageenan injection; for % of edema inhibition 3 h: 3 h after carrageenan injection; for % of edema inhibition 5 h: 5 h after carrageenan injection
[2] = system: acetic acid-induced writhing; assay: In vivo analgesic assay, acetic acid-induced writhing method; design: species or system Wistar rats; settings: for potency: % inhibition of tested compound / % inhibition of reference (celecoxib); for % inhibition (number of writhing) / no. of writhes (mean ± SE): acetic acid-induced writhing
[3] = system: serum levels of LDH, Tn-I, TNF-α and CK-MB; assay: Evaluation of cardiovascular parameters; type: in vivo, rats; settings: rat serum, 100 mg/kg oral, 2 weeks
COX-2 = molecular target: T1, COX-2 (Homo sapiens, UniProt P35354); assay: biochemical; type: biochemical; settings: for SI (selectivity index): IC50 (COX-1)/IC50 (COX-2); for fold less potent than compound 8o against COX-2: ratio of COX-2 IC50 values
T1 sequence (P35354 18-604): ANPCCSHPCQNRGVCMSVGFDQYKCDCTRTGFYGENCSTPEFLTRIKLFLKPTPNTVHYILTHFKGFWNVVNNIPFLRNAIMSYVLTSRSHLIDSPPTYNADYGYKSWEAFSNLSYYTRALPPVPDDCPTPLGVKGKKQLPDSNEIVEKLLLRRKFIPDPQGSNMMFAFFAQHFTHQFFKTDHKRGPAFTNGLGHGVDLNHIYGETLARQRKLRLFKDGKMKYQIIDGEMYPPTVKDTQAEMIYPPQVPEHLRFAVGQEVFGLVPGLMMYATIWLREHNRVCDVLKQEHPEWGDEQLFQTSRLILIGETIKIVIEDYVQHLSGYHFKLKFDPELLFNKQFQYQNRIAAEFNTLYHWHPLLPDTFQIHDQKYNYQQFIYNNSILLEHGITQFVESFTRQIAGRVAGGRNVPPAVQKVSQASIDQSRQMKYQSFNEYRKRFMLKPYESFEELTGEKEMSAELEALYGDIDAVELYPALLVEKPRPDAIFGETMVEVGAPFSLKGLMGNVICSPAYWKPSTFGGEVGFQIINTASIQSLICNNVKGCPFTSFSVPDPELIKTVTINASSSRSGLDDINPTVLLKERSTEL

sEH = molecular target: T2, sEH (Homo sapiens, UniProt P34913); assay: In vitro sEH inhibition assay; type: biochemical; settings: sEH (IC50, nM)
T2 sequence (P34913 1-555): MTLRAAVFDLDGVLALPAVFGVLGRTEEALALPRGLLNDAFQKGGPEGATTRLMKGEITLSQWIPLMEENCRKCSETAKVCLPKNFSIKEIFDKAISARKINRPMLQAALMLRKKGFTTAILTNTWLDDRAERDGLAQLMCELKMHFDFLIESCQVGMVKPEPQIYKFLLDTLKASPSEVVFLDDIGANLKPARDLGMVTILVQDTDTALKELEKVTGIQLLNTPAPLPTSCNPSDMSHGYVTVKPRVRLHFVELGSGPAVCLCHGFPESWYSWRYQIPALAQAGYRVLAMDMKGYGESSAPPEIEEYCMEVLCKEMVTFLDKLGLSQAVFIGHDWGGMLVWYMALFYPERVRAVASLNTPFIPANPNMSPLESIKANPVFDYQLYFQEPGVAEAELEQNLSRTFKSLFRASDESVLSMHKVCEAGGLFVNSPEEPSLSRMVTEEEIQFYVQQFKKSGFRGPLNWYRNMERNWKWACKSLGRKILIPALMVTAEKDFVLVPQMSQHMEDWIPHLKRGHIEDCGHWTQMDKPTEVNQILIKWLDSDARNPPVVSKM

5-LOX = settings: read-out: 5-LOX (IC50)
[4] = cited from earlier work

SMILES: Cc1ccc(-c2cc(C(F)(F)F)nn2-c2ccc(S(N)(=O)=O)cc2)cc1 [Celecoxib, reference compound]
- score: no. of gastric ulcers (rat stomach): 2.5 ± 0.10
- score: severity lesions (rat stomach): 5.80 ± 0.20
- % of edema inhibition 1 h [1]: 40%
- % of edema inhibition 3 h [1]: 54%
- % of edema inhibition 5 h [1]: 22%
- potency [2]: 1.00
- % inhibition (number of writhing) [2]: 13.5%
- no. of writhes (mean ± SE) [2]: 29.00 ± 0.70
- % inhibition (number of writhing) ([2]; listed as celecoxib): 13.50%
- CK-MB (IU/L) [3]: 96 ± 04 IU/L
- LDH (IU/L) [3]: 2100 ± 90 IU/L
- troponin-I [3]: 340 ± 10 pg/mL

SMILES: N#CC1=C(N)n2c(nnc2-c2ccccc2)NC1c1ccccc1 (centres unmarked) [Compound 8a, 5-Amino-7,8-dihydro-3,7-diphenyl-[1,2,4]triazolo[4,3-a]pyrimidine-6-carbonitrile]
- IC50 (COX-2): 21.7 µM
- SI (selectivity index) (COX-2): 10

SMILES: Cc1ccc(C2Nc3nnc(-c4ccccc4)n3C(N)=C2C#N)cc1 (centres unmarked) [Compound 8d, 5-Amino-7,8-dihydro-3-phenyl-7-p-tolyl-[1,2,4]triazolo[4,3-a]pyrimidine-6-carbonitrile]
- IC50 (COX-2): 46.9 µM
- SI (selectivity index) (COX-2): 6

SMILES: COc1ccc(C2Nc3nnc(-c4ccccc4)n3C(N)=C2C#N)cc1 (centres unmarked) [Compound 8e, 5-Amino-7,8-dihydro-7-(4-methoxyphenyl)-3-phenyl-[1,2,4]triazolo[4,3-a]pyrimidine-6-carbonitrile]
- IC50 (COX-2): 29.7 µM
- SI (selectivity index) (COX-2): 8
- fold less potent than compound 8o against COX-2 (COX-2): 2.8 fold

SMILES: N#CC1=C(N)n2c(nnc2-c2ccncc2)NC1c1ccccc1 (centres unmarked) [Compound 8f, 5-Amino-7,8-dihydro-7-phenyl-3-(pyridin-4-yl)-[1,2,4]triazolo[4,3-a]pyrimidine-6-carbonitrile]
- IC50 (COX-2): 51.5 µM
- SI (selectivity index) (COX-2): 6

SMILES: COc1ccc(C2Nc3nnc(-c4ccncc4)n3C(N)=C2C#N)cc1 (centres unmarked) [Compound 8j, 5-Amino-7,8-dihydro-7-(4-methoxyphenyl)-3-(pyridin-4-yl)-[1,2,4]-triazolo[4,3-a]pyrimidine-6-carbonitrile]
- IC50 (COX-2): 42.7 µM
- SI (selectivity index) (COX-2): 7
- fold less potent than compound 8o against COX-2 (COX-2): 4 fold

SMILES: N#CC1=C(N)n2c(nnc2-c2cccnc2)NC1c1ccccc1 (centres unmarked) [Compound 8k, 5-Amino-7,8-dihydro-7-phenyl-3-(pyridin-3-yl)-[1,2,4]triazolo[4,3-a]pyrimidine-6-carbonitrile]
- IC50 (COX-2): 37.5 µM
- SI (selectivity index) (COX-2): 8
- fold less potent than compound 8o against COX-2 (COX-2): 3.5 fold

SMILES: N#CC1=C(N)n2c(nnc2-c2cccnc2)NC1c1ccc(Br)cc1 (centres unmarked) [Compound 8l, 5-Amino-7-(4-bromophenyl)-7,8-dihydro-3-(pyridin-3-yl)-[1,2,4]triazolo [4,3-a]pyrimidine-6-carbonitrile]
- IC50 (COX-2): 53.7 µM
- SI (selectivity index) (COX-2): 4

SMILES: N#CC1=C(N)n2c(nnc2-c2cccnc2)NC1c1ccc(Cl)cc1 (centres unmarked) [Compound 8m, 5-Amino-7-(4-chlorophenyl)-7,8-dihydro-3-(pyridin-3-yl)-[1,2,4]triazolo [4,3-a]pyrimidine-6-carbonitrile]
- % of edema inhibition 1 h [1]: 32%
- % of edema inhibition 3 h [1]: 59%
- % of edema inhibition 5 h [1]: 70%
- IC50 (sEH): 2.95 ± 0.08 nM
- IC50 (COX-2): 11.6 µM
- SI (selectivity index) (COX-2): 20
- IC50 (5-LOX): 2.9 µM and 3.05 µM
- potency [2]: 3
- % inhibition (number of writhing) [2]: 41%
- no. of writhes (mean ± SE) [2]: 19.00 ± 0.60
- CK-MB (IU/L) [3]: 20 ± 02 IU/L
- LDH (IU/L) [3]: 1485 ± 60 IU/L
- troponin-I [3]: 128 ± 06 pg/mL

SMILES: Cc1ccc(C2Nc3nnc(-c4cccnc4)n3C(N)=C2C#N)cc1 (centres unmarked) [Compound 8n, 5-Amino-7,8-dihydro-3-(pyridin-3-yl)-7-p-tolyl-[1,2,4]triazolo[4,3-a]pyrimidine-6-carbonitrile]
- IC50 (COX-2): 21.9 µM
- SI (selectivity index) (COX-2): 10

SMILES: COc1ccc(C2Nc3nnc(-c4cccnc4)n3C(N)=C2C#N)cc1 (centres unmarked) [Compound 8o, 5-Amino-7,8-dihydro-7-(4-methoxyphenyl)-3-(pyridin-3-yl)-[1,2,4] triazolo[4,3-a]pyrimidine-6-carbonitrile]
- score: no. of gastric ulcers (rat stomach): 0
- score: severity lesions (rat stomach): 0
- ulceration in the isolated rat stomach (observation) (rat stomach): no ulceration
- % of edema inhibition 1 h [1]: 37%
- % of edema inhibition 3 h [1]: 61%
- % of edema inhibition 5 h [1]: 73%
- IC50 (sEH): 2.1 ± 0.07 nM
- IC50 (5-LOX): 3.05 µM
- potency [2]: 3.5
- % inhibition (number of writhing) [2]: 47% and 47.50%
- no. of writhes (mean ± SE) [2]: 15.00 ± 0.50
- CK-MB (IU/L) [3]: 17 ± 01 IU/L
- LDH (IU/L) [3]: 1390 ± 50 IU/L
- troponin-I [3]: 107 ± 05 pg/mL

SMILES: CC(C)Cc1ccc(C(C)C(=O)O)cc1 (centres unmarked) [ibuprofen]
- ulcer index [4]: 21.26

SMILES: COc1ccc2c(c1)c(CC(=O)O)c(C)n2C(=O)c1ccc(Cl)cc1 [indomethacin]
- score: no. of gastric ulcers (rat stomach): 8.5 ± 0.40
- score: severity lesions (rat stomach): 12.50 ± 0.70

Reference: publication PMC11307993 (ACS Omega, 2024)
